In publication PMC10604444, “Extra-Synaptic GABAA Receptor Potentiation and Neurosteroid-Induced Learning Deficits Are Inhibited by GR3027, a GABAA Modulating Steroid Antagonist” (Biomolecules, 2023):
Where two headings read alike, the source gives them in different places.

Legend:
[1] = target: T1, human α1β2γ2L GABAA receptors expressed in HEK-293 cells (Homo sapiens, UniProt P14867+P47870); test: Whole-cell patch clamp of GABA/THDOC-evoked currents, synaptic protocol (Dynaflow); format: cell-based; settings: for Reduction of AUC of THDOC-induced GABA response: n = 8, p ≤ 0.05
T1 construct: The coding regions of the human GABAA receptor subunits were then amplified by PCR; expressed in transfected cells; host or cells: HEK-293 (permanently transfected, pcDNA3.1 vectors, CMV promoter)
Description: (§1) Wild-type HEK-293 cells (passage 4, originating from Pasteur Institute, Paris, France) were permanently transfected with vectors including the human CMV promoter for the constitutive expression of the human α5, β3, and γ2L GABAA receptor subunits (α5β3γ2L) or the human α1, β2, and γ2L GABAA receptor subunits (α1β2γ2L). The production of the plasmids used in the sub-cloning of the different subunits is published in Rahman et al..
(§2) The electrophysiological recordings from HEK-293 cells were performed with the whole-cell voltage clamp technique, at room temperature (21–23 °C). After compensation for liquid junction potential, a steady holding potential of −17 mV was used in all experiments. Patch pipettes were pulled from borosilicate glass (Bergman Labora AB, Danderyd, Sweden) and polished to a resistance of 2–5 MΩ when filled with intracellular solution and immersed in a bath (extracellular) solution (for solutions, see below). The pipette tips were filled by immersion in standard intracellular solution and subsequent back-filling with intracellular solution. The recordings were made using an Axopatch 200B amplifier and a Digidata 1322A (Axon Instruments, Foster City, CA, USA) controlled via a Pentium processor-based personal computer. Data were acquired using the pCLAMP software sampled at 10 kHz, filtered at 2–10 kHz, and analyzed with Clampfit (versions 9.0, both from Axon Instruments, Foster City, CA, USA). A series resistance between the pipette and cell membrane not higher than 20 MΩ was accepted. No series resistance compensation was used. The stability of series resistance was monitored repeatedly from the time course of capacitative transients during the experiments. The measured liquid junction potential between extracellular and intracellular solutions was subtracted from all data presented, as previously described. All experiments were performed at room temperature (21–23 °C).
(§3) In all electrophysiological experiments, tetrahydro-deoxycorticosterone (THDOC) was used as a positive GABAA receptor steroid modulator (PAM) to mimic the effect of AP on central GABAA channels. […] THDOC (Sigma Chemical Co., St. Louis, MO, USA) and GR3027 (3α-ethynyl, 3β-hydroxyl, 5α-androstan-17-oxime, golexanolone, Umecrine Cognition AB, Stockholm, Sweden) were dissolved in dimethyl sulfoxide (DMSO) using ultrasound, for the preparation of solutions containing a final DMSO concentration of 0.1%. GR3027 was discovered within a series of molecules developed and patented by T. Bäckström and G. Ragagnin, (patent WO 2008/063128). All solutions were complemented with DMSO to achieve the same final concentration as in the steroid-containing test solution. GABA (Sigma Chemical Co., St. Louis, MO, USA) was first prepared as a stock solution (dissolved in EC with ultrasonic treatment) to the desired concentrations, with the corresponding final concentrations of test solutions (30 µM and 0.3 µM; see protocols below). GABA was added to the experimental solution without a change in osmolarity.
(§4) The experimental protocols were designed to mimic the physiological conditions of the tonic (extra-synaptic) and phasic (synaptic) activation of GABAA receptors observed in central neurons, depending on the subunit compositions, respectively. GABA-evoked currents in HEK-293 cells expressing extra-synaptic (α5β3γ2L) or synaptic (α1β2γ2L) types of GABAA receptors were studied using the conventional whole-cell patch clamp technique. To mimic the physiological GABA exposure, the HEK-293 cells expressing α1β2γ2L GABAA receptors were exposed to short applications (40 ms) of 30 µM GABA, whereas HEK-293 cells expressing α5β3γ2L GABAA receptors were exposed to prolonged applications (6 s) of 0.3 µM GABA, either in the absence or presence of THDOC and/or GR3027.

[2] = Pharmacokinetic analysis of GR3027 in plasma after i.v. and p.o. administration; format: in vivo, rat; settings: for AUC: male Sprague-Dawley rats, 0-24 h; for Cmax / Tmax / half-life: rat plasma; for half-life: read-out: t½; for k el: in vivo
Procedure: Ten male Sprague-Dawley rats were used to assess PK with GR3027 given orally and intravenously, respectively. Animals were kept at room temperature with artificial light under a 12/12 h light/dark schedule, and with food and water ad libitum. Animals were given 2 mg/kg i.v. in 10% 2-hydroxypropyl-beta-cyclodextrin or 10 mg/kg orally. Approximately 50 µL blood samples were taken at 15 min, 30 min, 1 h, 2 h, 4 h, 8 h, 12 h, and 24 h after oral dosing, and 5 min, 15 min, 30 min, 1 h, 2 h, 4 h, 8 h, 12 h, and 24 h after intravenous dosing, and plasma was frozen. The analysis method has been described earlier and is here briefly described. All the samples were analyzed in triplicate by Admescope Ltd., Oulu, Finland, using an LC/MS/MS method developed for the purpose, using a Waters ACQUITY UPLC_Waters XEVO-TQS triple-quadrupole mass spectrometer.
Blood/plasma samples were obtained at several time points after the i.v. and p.o. administration of GR3027 to rats. The maximum plasma concentration (Cmax) and the time to Cmax (Tmax) were derived directly from the plasma concentration data. The results are shown in Table 4 as the area under the concentration–time curve (AUC, 0–24 h), elimination half-life in plasma (t1/2), elimination rate constant (Ke), total body clearance (CL), and mean residence time (MRT), i.e., how long GR3027 remained in the body. The tentative oral bioavailability (F) was calculated by dividing the dose-normalized AUC after p.o. administration by the dose-normalized AUC after i.v. administration, i.e., F = [(AUC(p.o.)/Dose(p.o.))///(AUC(i.v)/Dose (i.v.))], and reported as percentages (%).

[3] = target: T2, human α5β3γ2L GABAA receptors expressed in HEK-293 cells (Homo sapiens, UniProt P28472+P31644); test: Whole-cell patch clamp of GABA/THDOC-evoked currents, extra-synaptic protocol (Dynaflow); format: cell-based; settings: for Current with GR3027 alone: baseline holding current +2.15 ± 1.4 pA, n = 9, not significant
T2 construct: The coding regions of the human GABAA receptor subunits were then amplified by PCR; expressed in transfected cells; host or cells: HEK-293 (permanently transfected, pcDNA3.1 vectors, CMV promoter)
Description: as §1, §2, §3, §4

[4] = male, Sprague-Dawley, iv, 2 mg/kg i.v., mean
[5] = male, Sprague-Dawley, po, 10 mg/kg p.o., mean

T1 sequence (P14867 28-456): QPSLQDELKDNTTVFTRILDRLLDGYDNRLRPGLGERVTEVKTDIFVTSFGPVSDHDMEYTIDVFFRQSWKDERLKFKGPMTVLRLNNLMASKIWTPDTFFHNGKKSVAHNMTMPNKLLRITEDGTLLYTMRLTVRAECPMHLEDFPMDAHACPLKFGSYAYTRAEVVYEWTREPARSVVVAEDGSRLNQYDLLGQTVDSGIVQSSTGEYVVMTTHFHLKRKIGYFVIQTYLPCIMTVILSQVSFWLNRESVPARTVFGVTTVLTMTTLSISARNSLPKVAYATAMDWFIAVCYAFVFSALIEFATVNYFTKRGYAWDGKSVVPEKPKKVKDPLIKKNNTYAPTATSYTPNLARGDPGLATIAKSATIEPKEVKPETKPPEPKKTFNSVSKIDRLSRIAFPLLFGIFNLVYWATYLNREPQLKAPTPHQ
T1 sequence (P47870 25-512 limits assumed): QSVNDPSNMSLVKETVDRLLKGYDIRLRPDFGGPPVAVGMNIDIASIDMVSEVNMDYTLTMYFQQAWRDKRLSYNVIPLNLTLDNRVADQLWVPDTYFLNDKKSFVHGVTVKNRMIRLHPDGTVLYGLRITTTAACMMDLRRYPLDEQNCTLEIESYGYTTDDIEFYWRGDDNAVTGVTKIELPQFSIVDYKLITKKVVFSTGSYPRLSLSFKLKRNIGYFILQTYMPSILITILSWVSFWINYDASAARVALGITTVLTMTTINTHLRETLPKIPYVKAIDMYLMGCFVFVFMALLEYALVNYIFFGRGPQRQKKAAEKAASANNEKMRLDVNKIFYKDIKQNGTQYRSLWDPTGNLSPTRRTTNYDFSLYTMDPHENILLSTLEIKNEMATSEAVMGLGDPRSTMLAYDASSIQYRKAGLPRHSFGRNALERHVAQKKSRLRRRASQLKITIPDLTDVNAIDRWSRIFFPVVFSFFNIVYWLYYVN
T1 sequence (P18507 40-475 partner): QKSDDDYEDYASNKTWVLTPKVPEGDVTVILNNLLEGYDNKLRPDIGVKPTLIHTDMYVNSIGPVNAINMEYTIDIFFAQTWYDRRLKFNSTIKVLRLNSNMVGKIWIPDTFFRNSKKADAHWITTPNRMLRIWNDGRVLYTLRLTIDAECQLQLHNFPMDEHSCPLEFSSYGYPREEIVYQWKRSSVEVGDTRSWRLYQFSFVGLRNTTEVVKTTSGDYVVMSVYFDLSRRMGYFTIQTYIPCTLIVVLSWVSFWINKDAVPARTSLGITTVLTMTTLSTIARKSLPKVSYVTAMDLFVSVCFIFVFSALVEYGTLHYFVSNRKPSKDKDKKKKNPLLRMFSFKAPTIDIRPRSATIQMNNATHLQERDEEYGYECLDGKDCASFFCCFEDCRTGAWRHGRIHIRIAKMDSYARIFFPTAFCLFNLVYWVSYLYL
T2 sequence (P31644 32-462): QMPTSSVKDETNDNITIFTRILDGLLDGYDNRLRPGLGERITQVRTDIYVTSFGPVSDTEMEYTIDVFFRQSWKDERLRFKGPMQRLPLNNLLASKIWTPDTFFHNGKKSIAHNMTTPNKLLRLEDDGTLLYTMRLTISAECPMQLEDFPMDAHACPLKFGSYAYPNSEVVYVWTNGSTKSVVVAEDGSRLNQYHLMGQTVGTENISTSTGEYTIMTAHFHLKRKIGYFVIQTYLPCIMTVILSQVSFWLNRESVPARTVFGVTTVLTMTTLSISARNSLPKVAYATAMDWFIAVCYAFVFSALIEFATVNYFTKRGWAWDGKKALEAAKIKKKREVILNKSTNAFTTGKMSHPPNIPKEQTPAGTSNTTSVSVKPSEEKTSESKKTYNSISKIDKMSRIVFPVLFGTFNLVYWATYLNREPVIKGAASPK
T2 sequence (P28472 26-473 isoform P28472-2 limits assumed): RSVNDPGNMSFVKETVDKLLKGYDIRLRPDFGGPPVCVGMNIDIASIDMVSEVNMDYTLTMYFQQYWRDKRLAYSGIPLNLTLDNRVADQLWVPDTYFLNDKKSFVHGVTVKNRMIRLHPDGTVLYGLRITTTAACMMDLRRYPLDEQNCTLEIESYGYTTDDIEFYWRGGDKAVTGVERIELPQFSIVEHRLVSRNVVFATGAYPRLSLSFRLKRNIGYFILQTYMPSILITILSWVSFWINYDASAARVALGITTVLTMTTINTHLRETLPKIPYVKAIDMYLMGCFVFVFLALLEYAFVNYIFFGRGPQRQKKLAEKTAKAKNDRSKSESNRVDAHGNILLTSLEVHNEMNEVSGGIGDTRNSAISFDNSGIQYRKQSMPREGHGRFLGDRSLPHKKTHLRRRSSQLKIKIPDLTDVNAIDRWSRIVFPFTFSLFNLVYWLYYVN
T2 sequence (P18507 40-475 partner): as the sequence (P18507 40-475 partner) above

With C#C[C@]1(O)CC[C@@]2(C)[C@@H](CC[C@@H]3[C@@H]2CC[C@]2(C)/C(=N/O)CC[C@@H]32)C1 [GR3027, 3α-ethynyl-3β-hydroxyl-5α-androstan-17-oxime] the “Reduction of AUC of THDOC-induced GABA response” value ([1]; 1 µM GR3027 + 200 nM THDOC + 30 µM GABA (40 ms)) was −11.6 ± 3.1, the “Change of AUC of GABA-mediated current, GR3027 alone” value ([1]; 1 µM GR3027 + 30 µM GABA, no THDOC, NS, n = 21) was “–3.1 ± 1.7%” and the “Reduction of AUC of THDOC-induced GABA response” value ([1]; 3 µM GR3027 + 200 nM THDOC + 30 µM GABA (40 ms)) was −22.9 ± 2.8. For the same molecule, the “Decrease in THDOC-mediated baseline holding current shift” value ([1]; 3 µM GR3027, 200 nM THDOC, absence of GABA, n = 7, p ≤ 0.05) was −38.1 ± 7.6%, the “Effect on baseline holding current or 30 µM GABA-mediated currents, GR3027 alone” value ([1]; GR3027 alone, no THDOC) was “No difference” and the “Effect on THDOC-induced GABA currents at lower concentrations” value ([1]; GR3027 below 1 µM (tested from 0.1 µM), 200 nM THDOC + 30 µM GABA) was “no reduction”. It also gave an AUC ([2]; 2 mg/kg i.v., plasma, mean) of 2205586 min ∗ ng/mL, an AUC ([2]; 10 mg/kg p.o., plasma, mean) of 113568 min ∗ ng/mL and a Cmax [2, 4] of 74500 ng/mL. The Tmax [2, 4] was 0.0833 h, the half-life [2, 4] was 11.3 h and the MRT ([2]; male, Sprague-Dawley, plasma, iv, 2 mg/kg i.v., rat, mean) was 0.277 h. It also gave a clearance ([2]; male, Sprague-Dawley, plasma, iv, 2 mg/kg i.v., rat, mean, read-out: Cl (total body clearance)) of 1.09 mL/min/kg, a bioavailability ([2]; male, Sprague-Dawley, plasma, oral, 10 mg/kg p.o. vs 2 mg/kg i.v., dose-normalized AUC, rat, read-out: F (tentative oral bioavailability)) of 1% and an MRT ([2]; male, Sprague-Dawley, plasma, po, 10 mg/kg p.o., rat, mean) of 4.73 h. It also gave a Cmax [2, 5] of 504 ng/mL, a Tmax [2, 5] of 0.567 h and a half-life [2, 5] of 5.17 h. For the same molecule, the k el ([2]; male, Sprague-Dawley, rat, iv, 2 mg/kg) was 2e-05 s⁻¹, the k el ([2]; male, Sprague-Dawley, rat, po, 10 mg/kg) was 4.17e-05 s⁻¹ and the IC50 [3] was 0.344 µM. For the same molecule, the “Imax for decrease of AUC of THDOC-potentiated GABA-mediated response” value ([3]; 200 nM THDOC + 0.3 µM GABA) was −35%, the “Imax for decrease of peak current amplitude of THDOC-potentiated GABA-mediated response” value ([3]; 200 nM THDOC + 0.3 µM GABA) was −37% and the “Imax for reduction of THDOC-mediated outward current shift” value ([3]; 200 nM THDOC, absence of GABA) was −33%. For the same molecule, the “Mean change of peak current amplitude of GABA-mediated response” value ([3]; 1 µM GR3027 + 0.3 µM GABA, absence of THDOC, SEM 0.9, p = 0.02, n = 7) was −7.0%, the “Mean change of AUC of GABA-mediated response” value ([3]; 1 µM GR3027 + 0.3 µM GABA, absence of THDOC, SEM 1.5, NS, n = 7) was −3.8% and the “Effect on THDOC-induced current response (absence of GABA)” value ([3]; 1 µM GR3027, 1 µM THDOC) was “significantly reduced”. The “Effect on baseline holding current” value ([3]; 1 µM GR3027, absence of THDOC) was “did not change the baseline holding current”, the “Current with GR3027 alone” value ([3]; 1 µM GR3027, no GABA or THDOC) was “+1.6 ± 1.4 pA” and the “Current with GR3027 alone” value ([3]; 3 µM GR3027, no GABA or THDOC) was “+0.73 ± 0.4 pA”. For the same molecule, the “Effect on THDOC-induced current response (absence of GABA)” value ([3]; 3 µM GR3027, 0.1, 0.3, 0.6 and 1 µM THDOC) was “significantly reduced”, the IC50 ([3]; IC50 for decrease of AUC of THDOC-potentiated GABA-mediated response, 200 nM THDOC + 0.3 µM GABA, n = 4-14) was 0.341 µM and the IC50 ([3]; IC50 for decrease of peak current amplitude of THDOC-potentiated GABA-mediated response, 200 nM THDOC + 0.3 µM GABA, n = 4-14) was 0.563 µM.
